Experimental data reported in US20080161232A1, “C5a Receptor Antagonist” (JERINI AG, priority 2005, published 2008).
Starred links: 1 amine or outer side, 2 acyl side, 3 side chain; linkers in the order of their positions; H or OH if unused. Positions of bridges follow the written chain, without caps; N, C: chain ends. Non-standard residues stand in square brackets, D forms with d. Residues, ends and D or L forms follow the SMILES beside them. X7 = CC(=O)NCS(=O)(=O)C[C@H](N[*:1])C(=O)[*:2]; Phe(3-Cl) = N[C@@H](Cc1cccc(Cl)c1)C(=O)O; X3 = O=C([C@H](CCNC1=NCCN1)N[*:1])[*:2]; Phe(4-F) = N[C@@H](Cc1ccc(F)cc1)C(=O)O; 1Nal = N[C@@H](Cc1cccc2ccccc12)C(=O)O; His(τ-Me) = Cn1cnc(C[C@H](N)C(=O)O)c1; Bta = N[C@@H](Cc1csc2ccccc12)C(=O)O; Hyp = O=C(O)[C@@H]1C[C@@H](O)CN1; d(hLeu) = CC(C)CC[C@@H](N)C(=O)O; Tic = O=C(O)[C@@H]1Cc2ccccc2CN1; Cha = N[C@@H](CC1CCCCC1)C(=O)O; Cit = NC(=O)NCCC[C@H](N)C(=O)O; dCha = N[C@H](CC1CCCCC1)C(=O)O; Chg = N[C@H](C(=O)O)C1CCCCC1; dNle = CCCC[C@@H](N)C(=O)O; Nle = CCCC[C@H](N)C(=O)O; Orn = NCCC[C@H](N)C(=O)O; Aze = O=C(O)[C@@H]1CCN1; Dab = NCC[C@H](N)C(=O)O; Dap = NC[C@H](N)C(=O)O

The molecules below were run against T1, human C5aR(CD88) (Homo sapiens, UniProt P21730) (assay: Determination of the IC50 value in an enzyme release assay (functional assay, antagonistic activity)). Settings: antagonistic activity; IC50 group in enzyme release assay, RBL cells expressing human C5aR(CD88); read-out: activity (group).
T1 construct: expressed in transfected cells; host or cells: rat basophilic leukemia cells (RBL)
T1 sequence (P21730 1-350): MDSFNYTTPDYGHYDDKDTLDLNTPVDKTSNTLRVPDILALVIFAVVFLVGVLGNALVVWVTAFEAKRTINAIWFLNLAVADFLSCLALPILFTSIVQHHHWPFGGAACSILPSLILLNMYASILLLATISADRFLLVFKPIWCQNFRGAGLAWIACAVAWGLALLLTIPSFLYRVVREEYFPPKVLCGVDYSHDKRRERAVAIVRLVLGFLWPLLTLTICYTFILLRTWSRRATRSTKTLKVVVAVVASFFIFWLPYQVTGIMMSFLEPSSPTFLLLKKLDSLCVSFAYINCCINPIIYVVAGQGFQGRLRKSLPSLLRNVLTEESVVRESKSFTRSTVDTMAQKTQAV
Type: cell-based
In the case of `CC(=O)N[C@@H](Cc1ccccc1)C(=O)N[C@H]1CCCNC(=O)[C@H](Cc2cccc3ccccc23)NC(=O)[C@H](Cc2c[nH]c3ccccc23)NC(=O)[C@@H](CC2CCCCC2)NC(=O)[C@@H]2CCCN2C1=O` [Compound 188, Ac-Phe-[Orn-Pro-cha-Trp-1Ni]] (Ac-F[Orn]P[dCha]W[1Nal]; lactam 2-C), the IC50 is reported as 50 to 200 nM.
Molecule `CC(=O)N[C@@H](Cc1ccccc1)C(=O)N[C@H]1CCCNC(=O)[C@H](CC2CCCCC2)NC(=O)[C@H](Cc2c[nH]c3ccccc23)NC(=O)[C@@H](CC2CCCCC2)NC(=O)[C@@H]2CCCN2C1=O` [Compound 189, Ac-Phe-[Orn-Pro-cha-Trp-Cha]] (Ac-F[Orn]P[dCha]W[Cha]; lactam 2-C) has an IC50 of 50 to 200 nM.
`CC(=O)N[C@@H](Cc1ccccc1)C(=O)N[C@H]1CCCNC(=O)[C@H](C2CCCCC2)NC(=O)[C@H](Cc2c[nH]c3ccccc23)NC(=O)[C@@H](CC2CCCCC2)NC(=O)[C@@H]2CCCN2C1=O` [Compound 190, Ac-Phe-[Orn-Pro-cha-Trp-Chg]] (Ac-F[Orn]P[dCha]W[Chg]; lactam 2-C) gave an IC50 of 50 to 200 nM.
With `CC(=O)N[C@@H](Cc1ccccc1)C(=O)N[C@H]1CCCNC(=O)[C@H](Cc2cn(C)cn2)NC(=O)[C@H](Cc2c[nH]c3ccccc23)NC(=O)[C@@H](CC2CCCCC2)NC(=O)[C@@H]2CCCN2C1=O` [Compound 192, Ac-Phe-[Orn-Pro-cha-Trp-Ecr]] (Ac-F[Orn]P[dCha]W[His(τ-Me)]; lactam 2-C) the IC50 was 20 to 50 nM.
Work on `CC(=O)N[C@@H](Cc1ccccc1)C(=O)N[C@H]1CCCNC(=O)[C@H](CC(C)C)NC(=O)[C@H](Cc2c[nH]c3ccccc23)NC(=O)[C@@H](CC2CCCCC2)NC(=O)[C@@H]2CCCN2C1=O` [Compound 193, Ac-Phe-[Orn-Pro-cha-Trp-Leu]] (Ac-F[Orn]P[dCha]WL; lactam 2-C) yielded an IC50 of 50 to 200 nM.
For `CCCC[C@H]1NC(=O)[C@H](Cc2c[nH]c3ccccc23)NC(=O)[C@@H](CC2CCCCC2)NC(=O)[C@@H]2CCCN2C(=O)[C@@H](NC(=O)[C@H](Cc2ccccc2)NC(C)=O)CCCNC1=O` [Compound 194, Ac-Phe-[Orn-Pro-cha-Trp-nle]] (Ac-F[Orn]P[dCha]W[dNle]; lactam 2-C), the IC50 was 50 to 200 nM.
`CCCC[C@@H]1NC(=O)[C@H](Cc2csc3ccccc23)NC(=O)[C@@H](CCC(C)C)NC(=O)[C@@H]2CCCN2C(=O)[C@@H](NC(=O)[C@H](Cc2ccccc2)NC(C)=O)CCCNC1=O` [Compound 196, Ac-Phe-[Orn-Pro-hle-Bta-Nle]] (Ac-F[Orn]P[d(hLeu)][Bta][Nle]; lactam 2-C) gave an IC50 of 50 to 200 nM.
`CC(=O)N[C@@H](Cc1ccccc1)C(=O)N[C@H]1CCCNC(=O)[C@H](Cc2ccccc2)NC(=O)[C@H](Cc2csc3ccccc23)NC(=O)[C@@H](CCC(C)C)NC(=O)[C@@H]2CCCN2C1=O` [Compound 197, Ac-Phe-[Orn-Pro-hle-Bta-Phe]] (Ac-F[Orn]P[d(hLeu)][Bta]F; lactam 2-C) was tested, and the IC50 was 50 to 200 nM.
Molecule `CC(=O)N[C@@H](Cc1ccccc1)C(=O)N[C@H]1CCCNC(=O)[C@H](Cc2ccccc2)NC(=O)[C@H](Cc2ccc(F)cc2)NC(=O)[C@@H](CCC(C)C)NC(=O)[C@@H]2CCCN2C1=O` [Compound 198, Ac-Phe-[Orn-Pro-hle-Pff-Phe]] (Ac-F[Orn]P[d(hLeu)][Phe(4-F)]F; lactam 2-C) has an IC50 of 50 to 200 nM.
With `CCCC[C@@H]1NC(=O)[C@H](Cc2c[nH]c3ccccc23)NC(=O)[C@@H](CCC(C)C)NC(=O)[C@@H]2CCCN2C(=O)[C@@H](NC(=O)[C@H](Cc2ccccc2)NC(C)=O)CCCNC1=O` [Compound 199, Ac-Phe-[Orn-Pro-hle-Trp-Nle]] (Ac-F[Orn]P[d(hLeu)]W[Nle]; lactam 2-C) the IC50 was 20 to 50 nM.
Molecule `CCCC[C@@H]1NC(=O)[C@H](Cc2c[nH]c3ccccc23)NC(=O)[C@@H](CC2CCCCC2)NC(=O)[C@H](CO)NC(=O)[C@@H](NC(=O)[C@H](Cc2ccccc2)NC(C)=O)CCCNC1=O` [Compound 200, Ac-Phe-[Orn-Ser-cha-Trp-Nle]] (Ac-F[Orn]S[dCha]W[Nle]; lactam 2-C) has an IC50 of 50 to 200 nM.
Work on `CCCC[C@@H]1NC(=O)[C@H](Cc2c[nH]c3ccccc23)NC(=O)[C@@H](CCC(C)C)NC(=O)[C@H](CO)NC(=O)[C@@H](NC(=O)[C@H](Cc2ccccc2)NC(C)=O)CCCNC1=O` [Compound 202, Ac-Phe-[Orn-Ser-hle-Trp-Nle]] (Ac-F[Orn]S[d(hLeu)]W[Nle]; lactam 2-C) yielded an IC50 of 50 to 200 nM.
Work on `CCCC[C@@H]1NC(=O)[C@H](Cc2c[nH]c3ccccc23)NC(=O)[C@@H](CC2CCCCC2)NC(=O)[C@H]([C@@H](C)O)NC(=O)[C@@H](NC(=O)[C@H](Cc2ccccc2)NC(C)=O)CCCNC1=O` [Compound 203, Ac-Phe-[Orn-Thr-cha-Trp-Nle]] (Ac-F[Orn]T[dCha]W[Nle]; lactam 2-C) yielded an IC50 of 50 to 200 nM.
`CCCC[C@@H]1NC(=O)[C@H](Cc2c[nH]c3ccccc23)NC(=O)[C@@H](CC2CCCCC2)NC(=O)[C@@H]2Cc3ccccc3CN2C(=O)[C@@H](NC(=O)[C@H](Cc2ccccc2)NC(C)=O)CCCNC1=O` [Compound 205, Ac-Phe-[Orn-Tic-cha-Trp-Nle]] (Ac-F[Orn][Tic][dCha]W[Nle]; lactam 2-C) was tested, and the IC50 was 50 to 200 nM.
With `CC(=O)N[C@@H](Cc1ccccc1)C(=O)N[C@@H](C)C(=O)N1CCC[C@H]1C(=O)N[C@H](CC1CCCCC1)C(=O)N[C@@H](Cc1csc2ccccc12)C(=O)N[C@@H](Cc1ccccc1)C(N)=O` [Compound 206, Ac-Phe-Ala-Pro-cha-Bta-Phe-NH2] (Ac-FAP[dCha][Bta]F-NH2) the IC50 was 50 to 200 nM.
`CC(=O)N[C@@H](Cc1ccccc1)C(=O)N[C@@H](CCCNC(=N)N)C(=O)N1CCC[C@H]1C(=O)N[C@H](CCC(C)C)C(=O)N[C@@H](Cc1csc2ccccc12)C(=O)N[C@@H](Cc1ccccc1)C(N)=O` [Compound 207, Ac-Phe-Arg-Pro-hle-Bta-Phe-NH2] (Ac-FRP[d(hLeu)][Bta]F-NH2) showed an IC50 of 50 to 200 nM.
`CC(=O)N[C@@H](Cc1ccccc1)C(=O)N[C@@H](CCCNC(=N)N)C(=O)N1CCC[C@H]1C(=O)N[C@H](CCC(C)C)C(=O)N[C@@H](Cc1cccc(Cl)c1)C(=O)N[C@@H](Cc1ccccc1)C(N)=O` [Compound 208, Ac-Phe-Arg-Pro-hle-Mcf-Phe-NH2] (Ac-FRP[d(hLeu)][Phe(3-Cl)]F-NH2) gave an IC50 of 50 to 200 nM.
For `CC(=O)N[C@@H](Cc1ccccc1)C(=O)N[C@@H](CCCNC(N)=O)C(=O)N1C[C@H](O)C[C@H]1C(=O)N[C@H](CCC(C)C)C(=O)N[C@@H](Cc1csc2ccccc12)C(=O)N[C@@H](Cc1ccccc1)C(N)=O` [Compound 209, Ac-Phe-Cit-Hyp-hle-Bta-Phe-NH2] (Ac-F[Cit][Hyp][d(hLeu)][Bta]F-NH2), the IC50 was 50 to 200 nM.
`CC(=O)N[C@@H](Cc1ccccc1)C(=O)N[C@@H](CCCNC(N)=O)C(=O)N1CCC[C@H]1C(=O)N[C@H](CC1CCCCC1)C(=O)N[C@@H](Cc1csc2ccccc12)C(=O)N[C@@H](Cc1ccccc1)C(N)=O` [Compound 210, Ac-Phe-Cit-Pro-cha-Bta-Phe-NH2] (Ac-F[Cit]P[dCha][Bta]F-NH2) gave an IC50 of 50 to 200 nM.
Molecule `CC(=O)N[C@@H](Cc1ccccc1)C(=O)N[C@@H](CCCNC(N)=O)C(=O)N1CCC[C@H]1C(=O)N[C@H](CCC(C)C)C(=O)N[C@@H](Cc1csc2ccccc12)C(=O)N[C@@H](Cc1ccccc1)C(N)=O` [Compound 211, Ac-Phe-Cit-Pro-hle-Bta-Phe-NH2] (Ac-F[Cit]P[d(hLeu)][Bta]F-NH2) has an IC50 of 20 to 50 nM.
`CC(=O)N[C@@H](Cc1ccccc1)C(=O)N[C@@H](CCCNC(N)=O)C(=O)N[C@@H](CO)C(=O)N[C@H](CCC(C)C)C(=O)N[C@@H](Cc1csc2ccccc12)C(=O)N[C@@H](Cc1ccccc1)C(N)=O` [Compound 212, Ac-Phe-Cit-Ser-hle-Bta-Phe-NH2] (Ac-F[Cit]S[d(hLeu)][Bta]F-NH2) was tested, and the IC50 was 50 to 200 nM.
`CC(=O)N[C@@H](Cc1ccccc1)C(=O)N[C@@H](CCN)C(=O)N1CC[C@H]1C(=O)N[C@H](CC1CCCCC1)C(=O)N[C@@H](Cc1csc2ccccc12)C(=O)N[C@@H](Cc1ccccc1)C(N)=O` [Compound 213, Ac-Phe-Dab-Aze-cha-Bta-Phe-NH2] (Ac-F[Dab][Aze][dCha][Bta]F-NH2) gave an IC50 of 20 to 50 nM.
For `CC(=O)N[C@@H](Cc1ccccc1)C(=O)N[C@@H](CCN)C(=O)N1CC[C@H]1C(=O)N[C@H](CCC(C)C)C(=O)N[C@@H](Cc1csc2ccccc12)C(=O)N[C@@H](Cc1ccccc1)C(N)=O` [Compound 214, Ac-Phe-Dab-Aze-hle-Bta-Phe-NH2] (Ac-F[Dab][Aze][d(hLeu)][Bta]F-NH2), the IC50 was 20 to 50 nM.
Work on `CC(=O)N[C@@H](Cc1ccccc1)C(=O)N[C@@H](CCN)C(=O)N1CCC[C@H]1C(=O)N[C@H](CC1CCCCC1)C(=O)N[C@@H](Cc1csc2ccccc12)C(=O)N[C@@H](Cc1ccccc1)C(N)=O` [Compound 215, Ac-Phe-Dab-Pro-cha-Bta-Phe-NH2] (Ac-F[Dab]P[dCha][Bta]F-NH2) yielded an IC50 of 10 to 20 nM.
`CC(=O)N[C@@H](Cc1ccccc1)C(=O)N[C@@H](CN)C(=O)N1CCC[C@H]1C(=O)N[C@H](CC1CCCCC1)C(=O)N[C@@H](Cc1csc2ccccc12)C(=O)N[C@@H](Cc1ccccc1)C(N)=O` [Compound 216, Ac-Phe-Dap-Pro-cha-Bta-Phe-NH2] (Ac-F[Dap]P[dCha][Bta]F-NH2) was tested, and the IC50 was 50 to 200 nM.
In the case of `CC(=O)NCS(=O)(=O)C[C@H](NC(=O)[C@H](Cc1ccccc1)NC(C)=O)C(=O)N1CCC[C@H]1C(=O)N[C@H](CC1CCCCC1)C(=O)N[C@@H](Cc1csc2ccccc12)C(=O)N[C@@H](Cc1ccccc1)C(N)=O` [Compound 218, Ac-Phe-Eep-Pro-cha-Bta-Phe-NH2] (Ac-F[X7]P[dCha][Bta]F-NH2), the IC50 is reported as 50 to 200 nM.
In the case of `CC(=O)N[C@@H](Cc1ccccc1)C(=O)N[C@@H](CCNC1=NCCN1)C(=O)N1CC[C@H]1C(=O)N[C@H](CC1CCCCC1)C(=O)N[C@@H](Cc1csc2ccccc12)C(=O)N[C@@H](Cc1ccccc1)C(N)=O` [Compound 219, Ac-Phe-Fcn-Aze-cha-Bta-Phe-NH2] (Ac-F[X3][Aze][dCha][Bta]F-NH2), the IC50 is reported as 10 to 20 nM.
